Measurements reported in PMC9607427, “Novel 7-Chloro-(4-thioalkylquinoline) Derivatives: Synthesis and Antiproliferative Activity through Inducing Apoptosis and DNA/RNA Damage” (Pharmaceuticals, 2022).

SMILES | melting point [°C]
O=C(OCCCSc1ccnc2cc(Cl)ccc12)c1ccc(C(F)(F)F)cc1 [Compound 38, 3-[(7-Chloroquinolin-4-yl)sulfanyl]propyl-4-(trifluoromethyl)benzoate] | 122 to 124
CC(C)(C)c1ccc(C(=O)OCCCSc2ccnc3cc(Cl)ccc23)cc1 [Compound 39, 3-[(7-Chloroquinolin-4-yl)sulfanyl]propyl-4-tert-butylbenzoate] | 88 to 90
O=C(OCCCSc1ccnc2cc(Cl)ccc12)c1ccccc1F [Compound 40, 3-[(7-Chloroquinolin-4-yl)sulfanyl]propyl-2-fluorobenzoate] | 112 to 113
COc1ccc(C(=O)OCC[S+]([O-])c2ccnc3cc(Cl)ccc23)cc1 (centres unmarked) [Compound 42, 2-[(7-Chloroquinolin-4-yl)sulfinyl]ethyl-4-methoxybenzoate] | 126 to 128
COc1cccc(C(=O)OCC[S+]([O-])c2ccnc3cc(Cl)ccc23)c1OC (centres unmarked) [Compound 43, 2-[(7-Chloroquinolin-4-yl)sulfinyl]ethyl-2,3-dimethoxybenzoate] | 110
COc1ccc(OC)c(C(=O)OCC[S+]([O-])c2ccnc3cc(Cl)ccc23)c1 (centres unmarked) [Compound 44, 2-[(7-Chloroquinolin-4-yl)sulfinyl]ethyl-2,5-dimethoxybenzoate] | 112 to 113
COc1cc(OC)c(C(=O)OCC[S+]([O-])c2ccnc3cc(Cl)ccc23)cc1OC (centres unmarked) [Compound 45, 2-[(7-Chloroquinolin-4-yl)sulfinyl]ethyl-2,4,5-trimethoxybenzoate] | 151 to 153
COc1cc(C(=O)OCC[S+]([O-])c2ccnc3cc(Cl)ccc23)cc(OC)c1OC (centres unmarked) [Compound 46, 2-[(7-Chloroquinolin-4-yl)sulfinyl]ethyl-3,4,5-trimethoxybenzoate] | 144 to 146
